Counter-ions that a name gives are not always drawn. Like-named read-outs stand apart in the source and are kept apart here.
Columns and labels:
[1] = tested on: test animal (left carotid and femoral artery flow, ventricular and aortic pressure); experiment: Cardiovascular properties (flow rates of carotid and femoral artery, ventricular and aortic pressures) in the test animal; assay type: in vivo; design: ventricular and aortic pressures after moderate lowering: unit not given here; details: for ventricular and aortic pressures after sharp fall: from 130 mm of Hg
Protocol: Some compounds of this invention also have interesting cardiovascular properties so that they may be used as cerebral, coronary and peripheral vasodilators and hypotension-inducing agents, whereby the hypotension activity may occur primarily or secondarily with respect to the peripheral vasodilatation.
These cardiovascular properties have been found as follows:
After administration of the compound at the hereafter-indicated doses, the following parameters are measured on the test animal: the electrocardiogram, the left ventricular pressure, the amplified telediastolic pressure, the derivative of the ventricular pressure with respect to time (dp/dt), the aortic pressure, the average and pulsatile blood flow of the left carotid and femoral artery.

[2] = tested on: carrageenan-induced paw oedema; experiment: Acute oedema induced by carrageenan (anti-inflammatory test, rat paw swelling by plethysmography); assay type: in vivo; details: for inhibition in vivo at 100 mg/kg: Rattus norvegicus, read-out: Acute oedema induced by carrageenan, % of inhibition
Protocol: The anti-inflammatory properties are determined as follows:
The compounds to be tested are given as freshly prepared solutions or suspensions by oral route one hour before injecting the paw with carrageenan, a known inflammatory agent.
The inflammatory agent either in aqueous solution or suspension is then injected into the plantar tissue of the right hind paw of each rat, the left paw remaining untreated and serving as control. Each animal receives for example 0.05 ml of an aqueous solution containing 1 % of carrageenan and 0.9 % of sodium chloride.
4 hours after injection, the importance of swelling is determined by plethysmography and is expressed as a percent of the volume of the control paw.
The anti-inflammatory effect expressed as a percent of inhibition is obtained by comparison between rats treated with the anti-inflammatory agent and a control group of rats.
100 mg/kg of anti-inflammatory agent are administered by oral route.

[3] = 100 mg/kg oral, one hour before carrageenan, 4 hours after injection

Structure (SMILES): CNS(=O)(=O)c1cnccc1N1CCN(C)CC1 [Example 29, 4-(4'-methyl-1'-piperazinyl)-pyridine-3-methylsulfonamide]
- duration of increase of the femoral flow rate ([1]; 2 mg/kg): less than 5 min
- increase of the femoral flow rate ([1]; 2 mg/kg, maximum): 80%
- duration of increase of the carotid and femoral flow rates ([1]; 4 mg/kg): 10 min
- modification of the pressures ([1]; 4 mg/kg): slight reflex modification of the pressures
- increase of the carotid flow rate ([1]; 4 mg/kg, maximum where stated): 120%
- increase of the femoral flow rate ([1]; 4 mg/kg, maximum where stated): 80%
- increase of the carotid flow rate ([1]; 10 mg/kg): 300%
- phenomena (flow rates and pressures) compared with 4 mg/kg ([1]; 10 mg/kg): identical phenomena occur which are however stronger and of longer duration

Structure (SMILES): CCCCC1C(=O)N(c2ccccc2)N(c2ccccc2)C1=O [Phenylbutazone, reference compound]
- inhibition in vivo at 100 mg/kg [2, 3]: 41%

Structure (SMILES): CCN(CC)S(=O)(=O)c1cnccc1N1CCN(C)CC1 [Example 32, 4-(4'-methyl-1'-piperazinyl)-pyridine-3-diethylsulfonamide]
- inhibition in vivo at 100 mg/kg [2, 3]: 44.8%
- time to fall of cardiac and peripheral pressures ([1]; 2 mg/kg): ≤ 45 s
- cardiac and peripheral pressures on recovery ([1]; 2 mg/kg, after 5 minutes): 135 mm of Hg
- cardiac and peripheral pressures after fall ([1]; 2 mg/kg, from 150 mm of Hg): 75 mm of Hg
- increase of the carotid flow rate ([1]; 2 mg/kg, maximum where stated): 60%
- duration of hypotension / fall of pressure ([1]; 4 mg/kg): more than 20 min
- time to return of pressures to the starting values ([1]; 4 mg/kg): > 70 min
- pressure on return to the starting values ([1]; 4 mg/kg, after 70 minutes): 130 mm of Hg
- pressure in moderate hypotension ([1]; 4 mg/kg, from 135 mm of Hg): 75 mm of Hg

Structure (SMILES): CN(C)C=NS(=O)(=O)c1cnccc1N1CCN(C)CC1 [Example 48, 4-(4'-methyl-1'-piperazinyl)-pyridine-3-dimethylaminomethinesulfonamide]
- duration of activity on / increase of the carotid and femoral flow rates ([1]; 2 mg/kg): 5 min
- increase of the carotid and femoral flow rates ([1]; 2 mg/kg): 100%
- duration of increase of the carotid and femoral flow rates ([1]; 4 mg/kg): 10 min
- fall of the ventricular and aortic pressures ([1]; 4 mg/kg): temporary and moderate fall
- increase of the carotid and femoral flow rates ([1]; 4 mg/kg, compared with 2 mg/kg): stronger and longer
- phenomena (flow rates and pressures) compared with 4 mg/kg ([1]; 8 mg/kg): Identical phenomena are observed

Structure (SMILES): CN1CCN(c2ccncc2S(N)(=O)=O)CC1 [Example 28, 4-(4'-methyl-1'-piperazinyl)-pyridine-3-sulfonamide]
- duration of activity on / increase of the carotid and femoral flow rates ([1]; 2 mg/kg): more than 5 min
- time to return of ventricular and aortic pressures to the starting values / reversal of lowering ([1]; 2 mg/kg): ≤ 2 min
- ventricular and aortic pressures after moderate lowering ([1]; 2 mg/kg, from 160 mm of Hg): 100
- increase of the femoral flow rate ([1]; 2 mg/kg, maximum): 100%
- increase of the carotid flow rate ([1]; 2 mg/kg, maximum where stated): 150%
- phenomena (flow rates and pressures) compared with 2 mg/kg ([1]; 4 mg/kg): The same phenomena occur
- time to return of pressures to the starting values ([1]; 4 mg/kg): 40 min
- ventricular and aortic pressures after lowering ([1]; 4 mg/kg, from 160 mm of Hg): 70 mm of Hg
- phenomena (flow rates and pressures) compared with 4 mg/kg ([1]; 8 mg/kg): identical phenomena are observed
- time to return of pressures to their starting value ([1]; 8 mg/kg): 50 min

Structure (SMILES): CN1CCN(c2ccc(C#N)cn2)CC1 [Example 23, 2-(4'-methyl-1'-piperazinyl)-5-cyanopyridine]
- inhibition in vivo at 100 mg/kg [2, 3]: 48.8%

Structure (SMILES): CCNS(=O)(=O)c1ccc(N2CCN(C)CC2)nc1 [Example 11, 2-(4'-methyl-1'-piperazinyl)-pyridine-5-ethylsulfonamide]
- inhibition in vivo at 100 mg/kg [2, 3]: 42.4%

Structure (SMILES): CC(C)NC(=O)c1cccnc1N1CCN(C)CC1 [Example 22, 2-(4'-methyl-1'-piperazinyl)-pyridine-3-isopropylcarboxamide]
- inhibition in vivo at 100 mg/kg [2, 3]: 40%

Structure (SMILES): CNC(=O)c1cccnc1N1CCN(C)CC1 [Example 19, 2-(4'-methyl-1'-piperazinyl)-pyridine-3-methylcarboxamide]
- inhibition in vivo at 100 mg/kg [2, 3]: 51.2%

Structure (SMILES): CN1CCN(c2ccc(C(=O)N(C)C)cn2)CC1 [Example 25, 2-(4'-methyl-1'-piperazinyl)-5-dimethylcarboxamide]
- inhibition in vivo at 100 mg/kg [2, 3]: 28.8%

Structure (SMILES): O=C(O)c1cccnc1Nc1cccc(C(F)(F)F)c1 [Niflumic acid, reference compound]
- inhibition in vivo at 100 mg/kg [2, 3]: 32%

Structure (SMILES): CCNC(=O)c1cccnc1N1CCN(C)CC1 [Example 21, 2-(4'-methyl-1'-piperazinyl)-pyridine-3-ethylcarboxamide]
- inhibition in vivo at 100 mg/kg [2, 3]: 44.4%

Structure (SMILES): CC(C)NS(=O)(=O)c1cnccc1N1CCN(C)CC1 [Example 33, 4-(4'-methyl-1'-piperazinyl)-pyridine-3-isopropylsulfonamide]
- duration of increase of the average carotid flow rate ([1]; 2 mg/kg): 5 min
- increase of the average carotid flow rate ([1]; 2 mg/kg): slight increase
- time the carotid flow rate remains high compared to control values ([1]; 4 mg/kg): 10 min
- time to increase of the carotid flow rate ([1]; 4 mg/kg): within two minutes
- time to fall of femoral flow rate to the starting values ([1]; 4 mg/kg, after injection): ≤ 2 min
- increase of the carotid flow rate ([1]; 4 mg/kg, maximum where stated): 300%
- increase of the femoral flow rate ([1]; 4 mg/kg, maximum where stated): 200%

Structure (SMILES): CC(=O)Oc1ccccc1C(=O)O [Acetosalicylic acid, reference compound]
- inhibition in vivo at 100 mg/kg ([2]; po, 4 h): 0%

Structure (SMILES): O=C(O)c1ccccc1Nc1cccc(C(F)(F)F)c1 [Flufenamic acid, reference compound]
- inhibition in vivo at 100 mg/kg [2, 3]: 34%

Structure (SMILES): CN1CCN(c2ncccc2C#N)CC1 [Example 14, 2-(4'-methyl-1'-piperazinyl)-3-cyanopyridine hydrochloride]
- inhibition in vivo at 100 mg/kg [2, 3]: 63.2%

Structure (SMILES): CCN(CC)S(=O)(=O)c1cccnc1N1CCN(C)CC1 [Example 5, 2-(4'-methyl-1'-piperazinyl)-pyridine-3-diethylsulfonamide dihydrochloride]
- inhibition in vivo at 100 mg/kg [2, 3]: 44%

Structure (SMILES): CCOCCNS(=O)(=O)c1cnccc1N1CCN(C)CC1 [Example 40, 4-(4'-methyl-1'-piperazinyl)-pyridine-3-ethoxyethylsulfonamide]
- inhibition in vivo at 100 mg/kg [2, 3]: 60%
- duration of activity on / increase of the carotid and femoral flow rates ([1]; 2 mg/kg): less than 5 min
- variation of the cardiac and peripheral pressures ([1]; 2 mg/kg): without variation
- increase of the femoral flow rate ([1]; 2 mg/kg, maximum): 50%
- increase of the carotid flow rate ([1]; 2 mg/kg, maximum where stated): 300%
- duration of hypotension / fall of pressure ([1]; 4 mg/kg): 3 min
- increase of the carotid flow rate ([1]; 4 mg/kg): moderate increase of the carotid flow rate remains after return of the pressure rates to normal conditions
- return of blood pressure to the starting values ([1]; 4 mg/kg): quick return to the starting values
- blood pressure after moderate fall ([1]; 4 mg/kg, from 150 mm of Hg): 90 mm of Hg

Structure (SMILES): CN1c2ccccc2Sc2ccc(CC(=O)O)cc21 [Methiazinic acid, reference compound]
- inhibition in vivo at 100 mg/kg [2, 3]: 46%

Structure (SMILES): COCCNS(=O)(=O)c1cnccc1N1CCN(C)CC1 [Example 39, 4-(4'-methyl-1'-piperazinyl)-pyridine-3-methyoxyethylsulfonamide]
- inhibition in vivo at 100 mg/kg [2, 3]: 55.2%
- time to return of ventricular and aortic pressures to the starting values / reversal of lowering ([1]; 2 mg/kg): less than 3 min
- ventricular and aortic pressures after sharp fall ([1]; 2 mg/kg): 90 mm of Hg
- increase of the carotid flow rate ([1]; 2 mg/kg, maximum where stated): 75%
- duration of hypotension / fall of pressure ([1]; 4 mg/kg): 2 min
- increase of the peripheral flow rates ([1]; 4 mg/kg): 50%
- time to return of pressures to the starting values ([1]; 4 mg/kg): 30 min
- ventricular and aortic pressures after sharp fall ([1]; 4 mg/kg): 40 mm of Hg

Structure (SMILES): CN1CCN(CCNS(=O)(=O)c2cnccc2N2CCN(C)CC2)CC1 [Example 38, 4-(4'-methyl-1'-piperazinyl)-pyridine-3-(4"-methyl-1"-piperazinyl)-ethylsulfonamide]
- Acute oedema induced by carrageenan, % of inhibition [2, 3]: 60.8%
- activity on the carotid and femoral flow rates ([1]; 2 mg/kg): slight and breaf
- duration of activity on / increase of the carotid and femoral flow rates ([1]; 2 mg/kg): 5 min
- duration of action on the carotid and femoral flow rates ([1]; 4 mg/kg and 8 mg/kg): 10 min
- increase of the average flow rates (carotid and femoral) ([1]; 4 mg/kg and 8 mg/kg): 100%

Structure (SMILES): CCNS(=O)(=O)c1cccnc1N1CCN(C)CC1 [Example 4, 2-(4'-methyl-1'-piperazinyl)-pyridine-3-ethylsulfonamide]
- inhibition in vivo at 100 mg/kg [2, 3]: 50%

Structure (SMILES): CC(C)NC(=O)c1ccc(N2CCN(C)CC2)nc1 [Example 27, 2-(4'-methyl-1'-piperazinyl)-5-isopropylcarboxamide]
- inhibition in vivo at 100 mg/kg [2, 3]: 32%

— patent US3991057A, “C-Piperazino-pyridine sulfonamides” (A. Christiaens Societe Anonyme, priority 1970, dated 1976)
